From US20240368163A1, “COMPOUNDS AND METHODS FOR MODULATING SPLICING” (REMIX THERAPEUTICS INC., priority 2021, published 2024)
Like-named read-outs stand apart in the source and are kept apart here.

Key:
Format in all cases: cell-based, human
Target C [1] = experiment: HiBiT protein abundance assay, Target C; settings: Homo sapiens, modified K562 cells
How it was run: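 Luminescence from lytic HiBiT detection, taken after 24 h compound exposure at 37 °C, reports tagged protein abundance in knock-in cells seeded at 10000 cells/well. Doses spanned 10 points, 3-fold steps, top 10 μM final. A four-parameter logistic fit gave the 50% abundance concentration (IC50).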

HTT [2] = experiment: HiBiT protein abundance assay, HTT; settings: Homo sapiens, modified K562 cells
How it was run: (§1)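 HiBiT knock-in K562, 10000 cells/well, 24 h cpd at 37 °C/5% CO2; 10-pt 3-fold series from 10 μM final; DMSO ≤0.25%. Lytic detection, luminescence read. 4PL fit → IC50 vs DMSO control; unmodified K562 = baseline.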

Target C [3] = experiment: Splicing RT-qPCR panel, Target C canonical junction (CJ) mRNA; settings: Homo sapiens, read-out: Target C IC50 (decrease in CJ mRNA levels)
How it was run: (§2)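 A673 or K562 cells treated 24 h at 37 °C with 11-point 3-fold dilutions, top 10 uM, DMSO ≤0.25%. Lysates read by RT-qPCR for CJ and AJ isoforms, normalized to GAPDH, GUSB or PPIA; ΔΔCt vs DMSO converted to RQ, then percent response.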

HTT [4] = experiment: Splicing RT-qPCR assay, HTT mRNA canonical junction (CJ) and alternative junction (AJ); settings: Homo sapiens, read-out: HTT IC50 (decrease in CJ mRNA levels)
How it was run: as §2

MYB [5] = experiment: Splicing RT-qPCR assay, MYB mRNA canonical junction (CJ) and alternative junction (AJ); settings: Homo sapiens, read-out: MYB IC50 (decrease in CJ mRNA levels)
How it was run: as §2

MYB [6] = experiment: HiBiT protein abundance assay, MYB; settings: Homo sapiens, modified K562 cells
How it was run: as §1

SMN2 = experiment: Splicing RT-qPCR panel, SMN2 canonical junction (CJ) mRNA; settings: Homo sapiens, read-out: SMN2 IC50 (decrease in CJ mRNA levels)
How it was run: as §2

[7] = RT-qPCR panel, canonical junction mRNA, compound concentration having 50% response in CJ decrease
[8] = gene panel, CJ qPCR, protocol of Example 142

Compound | IC50 (Target C [1]; K562, 24 h, Table 13A) [nM] | IC50 (HTT [2]; K562, 24 h, Table 13A) [nM] | IC50 (Target C [3]; [7]) [µM] | IC50 (HTT [4]; [7]) [nM] | IC50 (MYB [5]; [7]) [µM] | IC50 (MYB [6]; K562, 24 h, Table 13A) [nM] | IC50 (SMN2; [7]) [nM] | IC50 (Target C [1]; Table 13B, 24 hours) [nM] | IC50 (HTT [2]; Table 13B, 24 hours) [nM] | IC50 (Target C [3]; [8]) [µM] | IC50 (HTT [4]; [8]) [nM] | IC50 (MYB [5]; [8]) [µM] | IC50 (MYB [6]; Table 13B, 24 hours) [nM] | IC50 (SMN2; [8]) [nM] | IC50 (Target C [1]; K562, 24 h, Table 13B) [nM] | IC50 (HTT [2]; K562, 24 h, Table 13B) [nM] | IC50 (MYB [6]; K562, 24 h, Table 13B) [nM]
CN(c1ncc(-c2ccc(-c3cn[nH]c3)c3ncsc23)nn1)[C@@H]1CC2CCC[C@@H](C1)N2C [Compound 573] | 1000 to 10000 | 1000 to 10000 | > 10 | 1000 to 10000 | > 10 | 1000 to 10000 | > 10000 |  |  |  |  |  |  |  |  |  | 
CN(c1ncc(-c2ccc(-n3cccn3)c3[nH]ncc23)nn1)[C@@H]1C[C@H]2CCC[C@@H](C1)N2C [Compound 575] | 1000 to 10000 | 100 to 1000 | 1 to 10 | 100 to 1000 | > 10 | 1000 to 10000 | 1000 to 10000 |  |  |  |  |  |  |  |  |  | 
c1cnn(-c2ccc(-c3cnc(N4CCNC5(CC5)C4)nn3)c3cn[nH]c23)c1 [Compound 577] | > 10000 | 1000 to 10000 | > 10 | 100 to 1000 | > 10 | 1000 to 10000 | 1000 to 10000 |  |  |  |  |  |  |  |  |  | 
CC(C)(C)[C@@H]1CN(c2ncc(-c3ccc(-n4cccn4)c4[nH]ncc34)nn2)CCN1 [Compound 582] | 1000 to 10000 | 100 to 1000 | 1 to 10 | 100 to 1000 | 1 to 10 | 1000 to 10000 | < 100 |  |  |  |  |  |  |  |  |  | 
COc1nc(-c2ccc(N(C)[C@@H]3C[C@H]4CC[C@@H](C3)N4)nn2)ccc1-n1cccn1 [Compound 907] |  |  |  |  |  |  |  | 1000 to 10000 | 100 to 1000 | > 10 | 100 to 1000 | 1 to 10 | 1000 to 10000 | 100 to 1000 |  |  | 
COc1nc(-c2ccc(N(C)[C@H]3CCN[C@@H](C)C3)nn2)ccc1-n1cccn1 [Compound 908] |  |  |  |  |  |  |  |  |  | 1 to 10 | > 10000 | > 10 |  | 1000 to 10000 | > 10000 | 1000 to 10000 | 1000 to 10000
Cc1nc(-c2ccc(N(C)[C@@H]3C[C@H]4CC[C@@H](C3)N4)nn2)ccc1-c1cn[nH]c1 [Compound 912] |  |  |  |  |  |  |  |  |  | 1 to 10 | 1000 to 10000 | 1 to 10 |  | 100 to 1000 | 1000 to 10000 | 1000 to 10000 | 1000 to 10000
COc1nc(-c2ccc(N(C)[C@@H]3C[C@H]4CC[C@@H](C3)N4)nn2)ncc1-c1cn[nH]c1 [Compound 913] |  |  |  |  |  |  |  |  |  | 1 to 10 | 1000 to 10000 | 1 to 10 |  | 1000 to 10000 | 1000 to 10000 | 1000 to 10000 | 1000 to 10000
COc1cc(-c2ccc(N(C)[C@@H]3C[C@H]4CC[C@@H](C3)N4)nn2)ccc1-c1cn[nH]c1 [Compound 914] |  |  |  |  |  |  |  |  |  | 0.1 to 1 | 100 to 1000 | 1 to 10 |  | < 100 | 100 to 1000 | 1000 to 10000 | 1000 to 10000
CN(c1ccc(-c2ccc(-c3cn[nH]c3)c(C(F)(F)F)n2)nn1)[C@@H]1C[C@H]2CC[C@@H](C1)N2 [Compound 916] |  |  |  |  |  |  |  |  |  | > 10 | > 10000 | > 10 |  | > 10000 | > 10000 | > 10000 | > 10000
COc1cc(-c2ccc(N(C)[C@@H]3C[C@H]4CC[C@@H](C3)N4)nn2)ncc1-c1cn[nH]c1 [Compound 921] |  |  |  |  |  |  |  |  |  | > 10 | > 10000 | > 10 |  | 1000 to 10000 | > 10000 | > 10000 | 1000 to 10000
CN(c1ccc(-c2ccc(-c3cn[nH]c3)c(Cl)n2)nn1)[C@@H]1C[C@H]2CC[C@@H](C1)N2 [Compound 923] |  |  |  |  |  |  |  |  |  | 0.1 to 1 | < 100 | 0.1 to 1 |  | < 100 | < 100 | < 100 | 100 to 1000
COc1nc(-c2ccc(NC3CCNCC3)nn2)ccc1-c1cn[nH]c1 [Compound 924] |  |  |  |  |  |  |  |  |  | > 10 | 1000 to 10000 | > 10 |  | 100 to 1000 | > 10000 | > 10000 | 1000 to 10000
COc1nc(-c2ccc(NC3CCNCC3)nn2)ccc1-c1cnn(C)c1 [Compound 925] |  |  |  |  |  |  |  |  |  | > 10 | 1000 to 10000 | 1 to 10 |  | 100 to 1000 | 1000 to 10000 | 1000 to 10000 | 1000 to 10000
COc1nc(-c2ccc(OC3CC(C)(C)NC(C)(C)C3)nn2)ccc1-c1cnn(C)n1 [Compound 926] |  |  |  |  |  |  |  |  |  | 1 to 10 | 100 to 1000 | 1 to 10 |  | 100 to 1000 | 100 to 1000 | 100 to 1000 | 1000 to 10000
COc1nc(-c2ccc(N(C)C3CC(C)(C)NC(C)(C)C3)nn2)ccc1-c1cnn(C)n1 [Compound 927] |  |  |  |  |  |  |  |  |  | 1 to 10 | 100 to 1000 | 1 to 10 |  | 100 to 1000 | 100 to 1000 | 100 to 1000 | 100 to 1000
COc1nc(-c2ccc(N(C)[C@@H]3C[C@H]4CC[C@@H](C3)N4)nn2)cnc1-c1cn[nH]c1 [Compound 928] |  |  |  |  |  |  |  |  |  | 0.1 to 1 | 100 to 1000 | 0.1 to 1 |  | < 100 | 100 to 1000 | 100 to 1000 | 100 to 1000
CCOc1nc(-c2ccc(N(C)[C@@H]3C[C@H]4CC[C@@H](C3)N4)nn2)ccc1-c1cn[nH]c1 [Compound 929] |  |  |  |  |  |  |  |  |  | < 0.1 | < 100 | < 0.1 |  | < 100 | < 100 | < 100 | < 100
COc1nc(-c2ccc(N(C)C3C[C@H]4CC[C@@H](C3)N4)nn2)ccc1-c1cnn(C)n1 (stereo partly drawn) [Compound 932] |  |  |  |  |  |  |  |  |  | 0.1 to 1 | 100 to 1000 | 0.1 to 1 |  | 100 to 1000 | 100 to 1000 | 100 to 1000 | 100 to 1000
COc1nc(-c2ccc(NC3CCNCC3)nn2)ccc1-c1cnn(C)n1 [Compound 933] |  |  |  |  |  |  |  |  |  | > 10 | > 10000 | > 10 |  | 1000 to 10000 | 1000 to 10000 | 1000 to 10000 | 1000 to 10000
COc1nc(-c2ccc(OC3CC(C)(C)NC(C)(C)C3)nn2)ccc1-n1cccn1 [Compound 934] |  |  |  |  |  |  |  |  |  | > 10 | 1000 to 10000 | > 10 |  | 1000 to 10000 | 1000 to 10000 | 1000 to 10000 | 1000 to 10000
